Reference: the supplement of paper PMC10307832

How the values were obtained:
Test in all cases: relative viability (nuclei count vs DMSO), 5 days (fraction); higher = more cells survive
[1] = compound: Cc1ccc2nc(NCCN)c3ncc(C)n3c2c1 + C[C@]1(O)C[C@@H](c2nc(-c3ccc4ccc(-c5ccccc5)nc4c3)c3c(N)nccn32)C1 [Linsitinib] (partner 1 µM)
Summary of the method: (§1)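 The day after seeding in 1536-well plates, lung cancer cell lines were treated by pin tool with a single drug, or with a fixed anchor-drug dose together with five library-drug doses (not always all listed) in √10 steps. After 5 days, a combined fix-and-stain solution (final 0.05% Triton X-100, 1% formaldehyde, 1 ug/ml Hoechst) was added. Nuclei counted on 4× images gave relative viability as treated counts over vehicle counts, reported as the median of duplicate plates.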

[2] = compound: O=C(/C=C/c1ccccc1)NC(NC(=S)Nc1cccc2cccnc12)C(Cl)(Cl)Cl [Salubrinal] + C[C@@H](Oc1cc(-c2cnn(C3CCNCC3)c2)cnc1N)c1c(Cl)ccc(F)c1Cl [Crizotinib] (partner 1 µM)
Summary of the method: as §1

[3] = compound: O=C(/C=C/c1ccccc1)NC(NC(=S)Nc1cccc2cccnc12)C(Cl)(Cl)Cl [Salubrinal] + Nc1nc2[nH]cc(CCc3ccc(C(=O)N[C@@H](CCC(=O)O)C(=O)O)cc3)c2c(=O)[nH]1 [Pemetrexed] (partner 0.2 µM)
Summary of the method: as §1

[4] = compound: O=C(/C=C/c1ccccc1)NC(NC(=S)Nc1cccc2cccnc12)C(Cl)(Cl)Cl [Salubrinal] + O=C(c1cc(Cc2n[nH]c(=O)c3ccccc23)ccc1F)N1CCN(C(=O)C2CC2)CC1 [Olaparib] (partner 8 µM)
Summary of the method: as §1

Cell Line: HCC-366
- relative viability ([1]; first compound 0.04 µM): 0.622
- relative viability ([1]; first compound 0.1265 µM): 0.612
- relative viability ([1]; first compound 0.4 µM): 0.642
- relative viability ([1]; first compound 1.265 µM): 0.78
- relative viability ([1]; first compound 4 µM): 0.49
- relative viability ([2]; first compound 0.08 µM): 0.798
- relative viability ([2]; first compound 0.253 µM): 0.437
- relative viability ([2]; first compound 0.8 µM): 0.777
- relative viability ([2]; first compound 2.53 µM): 0.393
- relative viability ([2]; first compound 8 µM): 0.55
- relative viability ([3]; first compound 0.08 µM): 0.194
- relative viability ([3]; first compound 0.8 µM): 0.165
- relative viability ([3]; first compound 2.53 µM): 0.153
- relative viability ([3]; first compound 8 µM): 0.161
- relative viability ([4]; first compound 0.08 µM): 0.459
- relative viability ([4]; first compound 0.8 µM): 0.401
- relative viability ([4]; first compound 2.53 µM): 0.341
- relative viability ([4]; first compound 8 µM): 0.357

Cell Line: BEN
- relative viability ([1]; first compound 0.04 µM): 0.916
- relative viability ([1]; first compound 0.1265 µM): 0.785
- relative viability ([1]; first compound 0.4 µM): 1.03
- relative viability ([1]; first compound 1.265 µM): 0.795
- relative viability ([1]; first compound 4 µM): 0.914
- relative viability ([2]; first compound 0.08 µM): 1.02
- relative viability ([2]; first compound 0.253 µM): 0.734
- relative viability ([2]; first compound 0.8 µM): 0.996
- relative viability ([2]; first compound 2.53 µM): 0.858
- relative viability ([2]; first compound 8 µM): 0.852
- relative viability ([3]; first compound 0.08 µM): 0.744
- relative viability ([3]; first compound 0.253 µM): 0.753
- relative viability ([3]; first compound 0.8 µM): 0.971
- relative viability ([3]; first compound 2.53 µM): 0.846
- relative viability ([3]; first compound 8 µM): 0.791
- relative viability ([4]; first compound 0.08 µM): 1.33
- relative viability ([4]; first compound 0.253 µM): 0.935
- relative viability ([4]; first compound 0.8 µM): 1.16
- relative viability ([4]; first compound 2.53 µM): 1.04
- relative viability ([4]; first compound 8 µM): 0.943

Cell Line: NCI-H23
- relative viability ([1]; first compound 0.04 µM): 0.746
- relative viability ([1]; first compound 0.1265 µM): 0.489
- relative viability ([1]; first compound 0.4 µM): 0.55
- relative viability ([1]; first compound 1.265 µM): 0.611
- relative viability ([1]; first compound 4 µM): 0.576
- relative viability ([2]; first compound 0.08 µM): 0.559
- relative viability ([2]; first compound 0.253 µM): 0.391
- relative viability ([2]; first compound 0.8 µM): 0.621
- relative viability ([2]; first compound 2.53 µM): 0.461
- relative viability ([2]; first compound 8 µM): 0.354
- relative viability ([3]; first compound 0.08 µM): 0.674
- relative viability ([3]; first compound 0.253 µM): 0.633
- relative viability ([3]; first compound 0.8 µM): 0.919
- relative viability ([3]; first compound 2.53 µM): 0.653
- relative viability ([3]; first compound 8 µM): 0.421
- relative viability ([4]; first compound 0.08 µM): 0.359
- relative viability ([4]; first compound 0.253 µM): 0.233
- relative viability ([4]; first compound 0.8 µM): 0.36
- relative viability ([4]; first compound 2.53 µM): 0.31
- relative viability ([4]; first compound 8 µM): 0.309

Cell Line: 201T
- relative viability ([1]; first compound 0.04 µM): 1
- relative viability ([1]; first compound 0.1265 µM): 1.09
- relative viability ([1]; first compound 0.4 µM): 1.04
- relative viability ([1]; first compound 1.265 µM): 0.98
- relative viability ([1]; first compound 4 µM): 0.992
- relative viability ([2]; first compound 0.08 µM): 0.997
- relative viability ([2]; first compound 0.253 µM): 1
- relative viability ([2]; first compound 0.8 µM): 1.05
- relative viability ([2]; first compound 2.53 µM): 1.01
- relative viability ([2]; first compound 8 µM): 1.02
- relative viability ([3]; first compound 0.08 µM): 0.356
- relative viability ([3]; first compound 0.253 µM): 0.321
- relative viability ([3]; first compound 0.8 µM): 0.403
- relative viability ([3]; first compound 2.53 µM): 0.318
- relative viability ([3]; first compound 8 µM): 0.364
- relative viability ([4]; first compound 0.08 µM): 0.866
- relative viability ([4]; first compound 0.253 µM): 0.61
- relative viability ([4]; first compound 0.8 µM): 0.861
- relative viability ([4]; first compound 2.53 µM): 0.809
- relative viability ([4]; first compound 8 µM): 0.824

Cell Line: NCI-H460
- relative viability ([1]; first compound 0.04 µM): 0.759
- relative viability ([1]; first compound 0.1265 µM): 0.735
- relative viability ([1]; first compound 0.4 µM): 0.751
- relative viability ([1]; first compound 1.265 µM): 0.692
- relative viability ([1]; first compound 4 µM): 0.642
- relative viability ([2]; first compound 0.08 µM): 1.18
- relative viability ([2]; first compound 0.253 µM): 0.891
- relative viability ([2]; first compound 0.8 µM): 0.843
- relative viability ([2]; first compound 2.53 µM): 0.909
- relative viability ([2]; first compound 8 µM): 0.541
- relative viability ([3]; first compound 0.08 µM): 0.0573
- relative viability ([3]; first compound 0.253 µM): 0.0837
- relative viability ([3]; first compound 0.8 µM): 0.0626
- relative viability ([3]; first compound 2.53 µM): 0.0636
- relative viability ([3]; first compound 8 µM): 0.0643
- relative viability ([4]; first compound 0.08 µM): 0.541
- relative viability ([4]; first compound 0.253 µM): 0.606
- relative viability ([4]; first compound 0.8 µM): 0.514
- relative viability ([4]; first compound 2.53 µM): 0.355
- relative viability ([4]; first compound 8 µM): 0.368

Cell Line: NCI-H661
- relative viability ([1]; first compound 0.04 µM): 0.644
- relative viability ([1]; first compound 0.1265 µM): 0.511
- relative viability ([1]; first compound 0.4 µM): 0.449
- relative viability ([1]; first compound 4 µM): 0.543
- relative viability ([2]; first compound 0.08 µM): 0.934
- relative viability ([2]; first compound 0.8 µM): 1.1
- relative viability ([2]; first compound 2.53 µM): 1.01
- relative viability ([2]; first compound 8 µM): 1.17
- relative viability ([3]; first compound 0.08 µM): 0.942
- relative viability ([3]; first compound 0.253 µM): 0.808
- relative viability ([3]; first compound 0.8 µM): 0.936
- relative viability ([3]; first compound 2.53 µM): 0.89
- relative viability ([3]; first compound 8 µM): 0.91
- relative viability ([4]; first compound 0.08 µM): 0.753
- relative viability ([4]; first compound 0.253 µM): 0.538
- relative viability ([4]; first compound 0.8 µM): 0.76
- relative viability ([4]; first compound 2.53 µM): 0.73
- relative viability ([4]; first compound 8 µM): 0.758

Cell Line: HCC-15
- relative viability ([1]; first compound 0.04 µM): 0.886
- relative viability ([1]; first compound 0.1265 µM): 0.833
- relative viability ([1]; first compound 0.4 µM): 0.855
- relative viability ([1]; first compound 1.265 µM): 0.805
- relative viability ([1]; first compound 4 µM): 0.905
- relative viability ([2]; first compound 0.08 µM): 0.984
- relative viability ([2]; first compound 0.253 µM): 0.651
- relative viability ([2]; first compound 0.8 µM): 0.946
- relative viability ([2]; first compound 2.53 µM): 0.883
- relative viability ([2]; first compound 8 µM): 0.785
- relative viability ([3]; first compound 0.08 µM): 0.205
- relative viability ([3]; first compound 0.253 µM): 0.266
- relative viability ([3]; first compound 0.8 µM): 0.234
- relative viability ([3]; first compound 2.53 µM): 0.231
- relative viability ([3]; first compound 8 µM): 0.211
- relative viability ([4]; first compound 0.08 µM): 0.766
- relative viability ([4]; first compound 0.253 µM): 0.711
- relative viability ([4]; first compound 0.8 µM): 0.784
- relative viability ([4]; first compound 2.53 µM): 0.702
- relative viability ([4]; first compound 8 µM): 0.68

Cell Line: LCLC-103H
- relative viability ([1]; first compound 0.04 µM): 1.06
- relative viability ([1]; first compound 0.1265 µM): 1.06
- relative viability ([1]; first compound 0.4 µM): 1.06
- relative viability ([1]; first compound 1.265 µM): 1.14
- relative viability ([1]; first compound 4 µM): 1.16
- relative viability ([2]; first compound 0.08 µM): 1.07
- relative viability ([2]; first compound 0.253 µM): 1.06
- relative viability ([2]; first compound 0.8 µM): 1.05
- relative viability ([2]; first compound 2.53 µM): 1.07
- relative viability ([2]; first compound 8 µM): 0.984
- relative viability ([3]; first compound 0.08 µM): 0.439
- relative viability ([3]; first compound 0.253 µM): 0.539
- relative viability ([3]; first compound 0.8 µM): 0.506
- relative viability ([3]; first compound 2.53 µM): 0.461
- relative viability ([3]; first compound 8 µM): 0.457
- relative viability ([4]; first compound 0.08 µM): 0.866
- relative viability ([4]; first compound 0.253 µM): 0.572
- relative viability ([4]; first compound 0.8 µM): 0.853
- relative viability ([4]; first compound 2.53 µM): 0.769
- relative viability ([4]; first compound 8 µM): 0.76

Cell Line: NCI-H441
- relative viability ([1]; first compound 0.04 µM): 0.752
- relative viability ([1]; first compound 0.1265 µM): 0.509
- relative viability ([1]; first compound 0.4 µM): 0.714
- relative viability ([1]; first compound 1.265 µM): 0.563
- relative viability ([1]; first compound 4 µM): 0.504
- relative viability ([2]; first compound 0.08 µM): 0.689
- relative viability ([2]; first compound 0.253 µM): 0.665
- relative viability ([2]; first compound 0.8 µM): 0.73
- relative viability ([2]; first compound 2.53 µM): 0.766
- relative viability ([2]; first compound 8 µM): 0.652
- relative viability ([3]; first compound 0.08 µM): 0.271
- relative viability ([3]; first compound 0.253 µM): 0.274
- relative viability ([3]; first compound 0.8 µM): 0.274
- relative viability ([3]; first compound 2.53 µM): 0.275
- relative viability ([3]; first compound 8 µM): 0.255
- relative viability ([4]; first compound 0.08 µM): 0.732
- relative viability ([4]; first compound 0.253 µM): 0.448
- relative viability ([4]; first compound 0.8 µM): 0.675
- relative viability ([4]; first compound 2.53 µM): 0.542
- relative viability ([4]; first compound 8 µM): 0.514

Cell Line: EPLC-272H
- relative viability ([1]; first compound 0.04 µM): 1.44
- relative viability ([1]; first compound 0.1265 µM): 1.02
- relative viability ([1]; first compound 0.4 µM): 1.13
- relative viability ([1]; first compound 1.265 µM): 1.32
- relative viability ([1]; first compound 4 µM): 1.15
- relative viability ([2]; first compound 0.08 µM): 0.976
- relative viability ([2]; first compound 0.253 µM): 0.839
- relative viability ([2]; first compound 0.8 µM): 0.887
- relative viability ([2]; first compound 2.53 µM): 1.03
- relative viability ([2]; first compound 8 µM): 0.949
- relative viability ([3]; first compound 0.08 µM): 0.255
- relative viability ([3]; first compound 0.8 µM): 0.363
- relative viability ([3]; first compound 2.53 µM): 0.342
- relative viability ([3]; first compound 8 µM): 0.294
- relative viability ([4]; first compound 0.08 µM): 0.913
- relative viability ([4]; first compound 0.8 µM): 0.977
- relative viability ([4]; first compound 2.53 µM): 0.596
- relative viability ([4]; first compound 8 µM): 0.452
